Test results from patent publication US9789082B2, “Somatostatin receptor subtype 4 (SSTR4) agonists” (Centrexion Therapeutics Corporation, priority 2013, dated 2017).

Experiments:
[1] = Metabolic stability in pooled human liver microsomes (half-life); assay type: in vitro ADME; conditions: 1 μM test compound; for half-life at 1 μM: pooled human liver microsomes, pH 7.6, 37° C., read-out: Half-life t1/2; for Half-life t1/2: 37° C.
Method: The metabolic stability of the compounds according to the invention may be investigated as follows:
The metabolic degradation of the test compound is assayed at 37° C. with pooled human liver microsomes. The final incubation volume of 100 μl per time point contains TRIS buffer pH 7.6 at room temperature (0.1 M), magnesium chloride (5 mM), microsomal protein (1 mg/mL) and the test compound at a final concentration of 1 μM. Following a short preincubation period at 37° C., the reactions are initiated by addition of beta-nicotinamide adenine dinucleotide phosphate, reduced form (NADPH, 1 mM), and terminated by transferring an aliquot into solvent after different time points. After centrifugation (10000 g, 5 min), an aliquot of the supernatant is assayed by LC-MS/MS for the amount of parent compound. The half-life is determined by the slope of the semi-logarithmic plot of the concentration-time profile.

human SSTR4 = human SSTR4 (Homo sapiens (Human), UniProt P31391); assay: Radioligand binding assay, CHO cell membranes expressing recombinant human SSTR4
Text: (§1) Radioligand Binding Assays
(§2) Method Description for Binding Assays with Human Somatostatin Receptors by Use of CHO Cell Membranes Expressing Recombinant Human SSTR1 or Human SSTR2 or Human SSTR3 or Human SSTR4 or Human SSTR5
(§3) Receptor binding assays refer to a technique in which labeled receptor ligands are used to detect binding to a receptor. In competition experiments test compounds, which are not labeled, compete with the binding side of a labeled ligand. The displacement of the labeled ligand by the test compound leads to a decreased signal.
(§4) For the binding experiments 200 μL of membrane homogenate from one of the following protein amounts is used: hSSTR1 (40 μg/well); hSSTR2 (25 μg/well); hSSTR3 (1.5 μg/well); hSSTR4 (0.5 μg/well); hSSTR5 (25 μg/well). […] The incubation is terminated by filtration with ice cold NaCl 0.9% through polyethyleneimine treated (0.3%) GF/B glass fiber filters using a cell harvester. The protein-bound radioactivity is measured in a suitable reader. The non-specific binding is defined as radioactivity bound in the presence of 1 μM Somatostatin-14 during the incubation period.
(§5) The analysis of the concentration-binding curves is performed by computer-assisted nonlinear least square curve fitting method using the model of one receptor binding site.
(§6) Selectivity data was obtained with the aid of the above described radioligand binding assays.

[2] = target: human Somatostatin 4 receptor (SSTR4) (Homo sapiens (Human), UniProt P31391); assay: cAMP assay with human somatostatin 4 receptor (hSSTR4 expressing H4 cells); assay type: cell-based; conditions: cAMP assay, read-out: SSTR4 agonism EC50
Method: Camp Assay Method Description for cAMP Assay with Human Somatostatin 4 Receptor
The activation of the SSTR4 receptor (Gi coupled) causes an inhibition of intracellular cAMP after stimulation with Forskolin, which can be quantifiable by use of a suitable assay Kit and an adequate plate reader. This technique is used to characterize pharmacological effects of the SSTR4 receptor agonists by use of hSSTR4 expressing H4 cells.
Compounds are dissolved and diluted in DMSO. The final test solution contains 1% DMSO. […] Cells are centrifuged and suspended in assay buffer (incl. 1:100 diluted Alexa antibody).
For the assay 5 μl of a cell suspension (approximately 5000 cells/well)—incl. Alexa antibody (diluted 1:100) are added into a 384 well MTP microtitre plate excepting one row or column (depending on the plate layout), which is reserved for the standard curve. Then 2 μl of compound sample is added as concentration response curve (e.g. 1e-5 M to 6e-10 M), usually in triplicates. Each assay contains incubations with vehicle controls instead of compound as controls for non-inhibited cAMP generation (100% CTL; ‘high values’) and incubations with 1 μM Somatosatin as controls for full inhibition and background (0% CTL; […]). […] Then the plates are shaken briefly and incubated for 60 min at room temperature. After 60 min 10 μl of the detection mix is added into all wells followed by an additional incubation period of 1 h. The plates are read in a suitable plate reader.
From this ratio, cAMP concentrations are calculated from standard curve and the EC50 is estimated by least square curve fit program.
The EC50 values were obtained with the aid of the above described cAMP ASSAY.

human SSTR3 = human SSTR3 (Homo sapiens (Human), UniProt P32745); assay: Radioligand binding assay, CHO cell membranes expressing recombinant human SSTR3
Text: as §1, §2, §3, §4, §5, §6

human SSTR2 = human SSTR2 (Homo sapiens (Human), UniProt P30874); assay: Radioligand binding assay, CHO cell membranes expressing recombinant human SSTR2
Text: as §1, §2, §3, §4, §5, §6

human SSTR1 = human SSTR1 (Homo sapiens (Human), UniProt P30872); assay: Radioligand binding assay, CHO cell membranes expressing recombinant human SSTR1
Text: as §1, §2, §3, §4, §5, §6

human SSTR5 = human SSTR5 (Homo sapiens (Human), UniProt P35346); assay: Radioligand binding assay, CHO cell membranes expressing recombinant human SSTR5
Text: as §1, §2, §3, §4, §5, §6

Sequence of human SSTR5 (P35346 whole entry): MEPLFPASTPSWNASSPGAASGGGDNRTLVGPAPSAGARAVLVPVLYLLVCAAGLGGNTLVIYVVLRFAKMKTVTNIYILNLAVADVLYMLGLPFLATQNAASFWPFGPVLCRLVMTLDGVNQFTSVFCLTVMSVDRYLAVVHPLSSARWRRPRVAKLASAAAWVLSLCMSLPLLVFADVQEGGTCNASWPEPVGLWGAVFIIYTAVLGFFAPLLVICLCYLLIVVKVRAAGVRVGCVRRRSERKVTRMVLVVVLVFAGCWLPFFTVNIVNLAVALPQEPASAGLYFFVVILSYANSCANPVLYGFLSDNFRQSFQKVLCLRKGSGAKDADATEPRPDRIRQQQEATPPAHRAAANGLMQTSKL
Sequence of human SSTR1 (P30872 whole entry): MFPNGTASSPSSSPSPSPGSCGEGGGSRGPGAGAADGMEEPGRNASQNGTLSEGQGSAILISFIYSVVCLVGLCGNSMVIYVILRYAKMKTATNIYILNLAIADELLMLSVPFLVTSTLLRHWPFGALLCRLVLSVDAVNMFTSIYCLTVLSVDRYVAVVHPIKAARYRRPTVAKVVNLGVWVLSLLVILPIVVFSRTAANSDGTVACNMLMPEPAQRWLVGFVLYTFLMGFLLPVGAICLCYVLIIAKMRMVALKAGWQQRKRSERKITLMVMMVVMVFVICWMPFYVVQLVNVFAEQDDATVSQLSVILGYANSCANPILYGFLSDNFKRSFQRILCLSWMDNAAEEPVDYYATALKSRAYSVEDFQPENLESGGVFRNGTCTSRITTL
Sequence of human SSTR2 (P30874 whole entry): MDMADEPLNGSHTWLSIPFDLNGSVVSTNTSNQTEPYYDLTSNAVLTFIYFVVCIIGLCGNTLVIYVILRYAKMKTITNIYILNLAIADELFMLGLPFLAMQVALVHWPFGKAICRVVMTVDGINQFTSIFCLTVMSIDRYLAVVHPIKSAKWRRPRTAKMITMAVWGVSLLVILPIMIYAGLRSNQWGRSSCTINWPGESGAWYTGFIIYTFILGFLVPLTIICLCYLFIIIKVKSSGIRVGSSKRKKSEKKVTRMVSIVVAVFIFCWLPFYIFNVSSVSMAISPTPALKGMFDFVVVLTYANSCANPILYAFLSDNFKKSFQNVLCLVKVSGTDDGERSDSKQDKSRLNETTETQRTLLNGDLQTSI
Sequence of human SSTR3 (P32745 whole entry): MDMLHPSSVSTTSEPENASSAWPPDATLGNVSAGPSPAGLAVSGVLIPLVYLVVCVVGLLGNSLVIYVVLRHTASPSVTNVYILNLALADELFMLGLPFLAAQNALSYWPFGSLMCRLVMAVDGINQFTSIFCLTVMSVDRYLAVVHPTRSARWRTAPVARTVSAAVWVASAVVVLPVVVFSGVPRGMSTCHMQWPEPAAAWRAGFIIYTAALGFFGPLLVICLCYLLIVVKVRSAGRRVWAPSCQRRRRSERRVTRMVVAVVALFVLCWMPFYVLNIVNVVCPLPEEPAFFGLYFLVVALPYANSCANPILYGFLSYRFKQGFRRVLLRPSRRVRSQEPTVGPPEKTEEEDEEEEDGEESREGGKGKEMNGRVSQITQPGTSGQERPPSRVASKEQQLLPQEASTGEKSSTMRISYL
Sequence of human Somatostatin 4 receptor (SSTR4) (P31391 whole entry): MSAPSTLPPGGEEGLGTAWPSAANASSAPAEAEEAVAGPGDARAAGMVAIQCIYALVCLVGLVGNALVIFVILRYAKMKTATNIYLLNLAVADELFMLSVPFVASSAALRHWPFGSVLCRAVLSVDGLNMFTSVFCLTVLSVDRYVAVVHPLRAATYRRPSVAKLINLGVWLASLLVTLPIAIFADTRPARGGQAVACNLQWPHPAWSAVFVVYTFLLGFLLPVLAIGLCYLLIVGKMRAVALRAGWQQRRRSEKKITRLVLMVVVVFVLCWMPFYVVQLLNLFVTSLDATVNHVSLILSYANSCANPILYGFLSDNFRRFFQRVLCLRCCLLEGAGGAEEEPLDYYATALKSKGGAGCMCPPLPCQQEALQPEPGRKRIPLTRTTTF
Sequence of human SSTR4 (P31391 whole entry): as above

Compound | half-life at 1 μM [1] [h] | EC50 [2] [nM] | other results
CC(C)(NC(=O)[C@H]1[C@@H]2CNC[C@@H]21)c1nc2ccc(Cl)cc2[nH]1.Cl [Example 11] | > 2.17 | 8.1 | Ki (human SSTR4): 106 nM; Ki (human SSTR3): > 8580 nM; Ki (human SSTR2): > 9590 nM; Ki (human SSTR1): > 8910 nM; Ki (human SSTR5): > 9850 nM
Cc1cc2ccccc2c(C(C)(C)NC(=O)[C@H]2[C@@H]3CNC[C@@H]32)n1.Cl [Example 22] | > 2.17 | 0.4 | Ki (human SSTR4): 3.7 nM; Ki (human SSTR2): > 9590 nM; Ki (human SSTR1): 848 nM; Ki (human SSTR5): > 9850 nM
Cc1ccnnc1OCC(C)(C)NC(=O)[C@H]1[C@@H]2CNC[C@@H]21.Cl [Example 67] | > 2.17 | 66.3 | –
CC(C)(NC(=O)[C@H]1[C@@H]2CNC[C@@H]21)c1ncc2ccccn12.Cl [Example 68] | > 2.17 | 4.7 | –
CC(C)(COc1ccccc1C1CC1)NC(=O)[C@H]1[C@@H]2CNC[C@@H]21 [Example 70] | > 2.17 | 5.7 | –
Cc1ccccc1OCC(C)(C)NC(=O)[C@H]1[C@@H]2CN(C)C[C@@H]21.Cl [Example 71] | 2 | 26.9 | –
Cn1nc(C(C)(C)NC(=O)[C@H]2[C@@H]3CNC[C@@H]32)c2c(F)cccc21 [Example 74] | 0.6 | 1.6 | –
Cn1nc(C(C)(C)NC(=O)[C@H]2[C@@H]3CNC[C@@H]32)c2ccc(F)cc21 [Example 75] | > 2.17 | 0.4 | –
Cn1nc(C(C)(C)NC(=O)[C@H]2[C@@H]3CNC[C@@H]32)c2cccc(C(F)(F)F)c21 [Example 76] | > 2.17 | 0.8 | –
Cc1ccc(C(C)(C)NC(=O)[C@H]2[C@@H]3CNC[C@@H]32)n2ccnc12 [Example 83] | > 2.17 | 11 | –
CC(C)(NC(=O)[C@H]1[C@@H]2CNC[C@@H]21)c1cc2ccccn2c1 [Example 87] | > 2.17 | 22.9 | –
Cc1cccc2c(C(C)(C)NC(=O)[C@H]3[C@@H]4CNC[C@@H]43)ncnc12 [Example 88] | > 2.17 | 0.8 | –
Cc1cccc2c(C(C)(C)NC(=O)[C@H]3[C@@H]4CNC[C@@H]43)n[nH]c12 [Example 93] | – | – | Half-life t1/2 [1]: >2.17 h; Ki (human SSTR3): > 8690 nM; Ki (human SSTR2): > 9630 nM; Ki (human SSTR1): 7030 nM; Ki (human SSTR5): > 9770 nM
CC(C)(NC(=O)[C@H]1[C@@H]2CNC[C@@H]21)c1n[nH]c2ccccc12 [Example 94] | – | – | Half-life t1/2 [1]: >2.17 h; Ki (human SSTR4): 15.9 nM; Ki (human SSTR3): > 8690 nM; Ki (human SSTR2): > 9630 nM; Ki (human SSTR1): > 9480 nM; Ki (human SSTR5): > 9770 nM
CCn1nc(C(C)(C)NC(=O)[C@H]2[C@@H]3CNC[C@@H]32)c2ccccc21 [Example 95] | > 2.17 | 3.6 | –
CC(C)(NC(=O)[C@H]1[C@@H]2CNC[C@@H]21)c1noc2c(C(F)(F)F)cccc12 [Example 102] | > 2.17 | 2.3 | –
Cn1nc(C(C)(C)NC(=O)[C@H]2[C@@H]3CNC[C@@H]32)c2cccc(F)c21 [Example 105] | > 2.17 | 0.4 | –
Cc1cccc2c(C(C)(C)NC(=O)[C@H]3[C@@H]4CNC[C@@H]43)nn(C)c12 [Example 107] | > 2.17 | – | Ki (human SSTR3): > 8600 nM; Ki (human SSTR2): > 9600 nM; Ki (human SSTR1): 4300 nM; Ki (human SSTR5): > 9850 nM
CC(C)(NC(=O)[C@H]1[C@@H]2CNC[C@@H]21)c1n[nH]c2c(F)cccc12 [Example 109] | > 2.17 | 0.3 | –
CC(NC(=O)[C@H]1[C@@H]2CNC[C@@H]21)c1nn(C)c2ccccc12 (stereo partly drawn) [Example 111] | > 2.17 | 14.5 | –

Compound | half-life at 1 μM [1] [h] | EC50 [2] [nM] | other results
CC(NC(=O)[C@H]1[C@@H]2CNC[C@@H]21)c1nn(C)c2c(Cl)cccc12 (stereo partly drawn) [Example 114] | > 2.17 | 4.7 | –
CC(C)(NC(=O)[C@H]1[C@@H]2CNC[C@@H]21)c1nc(C2CC2)c2ccccn12.Cl [Example 120] | > 2.17 | 1.9 | –
Cc1cccn2c(C(C)(C)NC(=O)[C@H]3[C@@H]4CNC[C@@H]43)nc(C(F)(F)F)c12.Cl [Example 129] | > 2.17 | 6.8 | –
CC(C)(NC(=O)[C@H]1[C@@H]2CNC[C@@H]21)c1ncc2c(F)cccn12.Cl [Example 133] | > 2.17 | 7.1 | –
Cc1cccn2c(C3(NC(=O)[C@H]4[C@@H]5CNC[C@@H]54)CCC3)ncc12 [Example 137] | > 2.17 | 0.8 | –
CC(C)(NC(=O)[C@H]1[C@@H]2CNC[C@@H]21)c1nc(C(F)(F)F)nc2ccccc12 [Example 139] | > 2.17 | 10.9 | –
COc1cccn2c(C(C)(C)NC(=O)[C@H]3[C@@H]4CNC[C@@H]43)ncc12 [Example 140] | > 2.17 | 0.6 | –
CC(C)(NC(=O)[C@H]1[C@@H]2CNC[C@@H]21)c1nc(C2CC2)nc2ccccc12 [Example 141] | > 2.17 | 3.3 | –
Cc1cccn2c(C(C)(C)NC(=O)[C@H]3[C@@H]4CNC[C@@H]43)nnc12 [Example 142] | > 2.17 | 4 | –
CC(C)(NC(=O)[C@H]1[C@@H]2CNC[C@@H]21)c1ncc2c(Cl)cccn12 [Example 143] | > 2.17 | 0.3 | –
Cc1cccn2c(C3(NC(=O)[C@H]4[C@@H]5CNC[C@@H]54)CC3)ncc12 [Example 145] | > 2.17 | 0.9 | –
CC(C)(NC(=O)[C@H]1[C@@H]2CNC[C@@H]21)c1ncc2c(C3CC3)cccn12 [Example 146] | > 2.17 | 2.6 | –
CC(C)(NC(=O)[C@H]1[C@@H]2CNC[C@@H]21)c1nc(C2CC2)c2c(F)cccn12 [Example 149] | > 2.17 | 1 | –
Cc1cccn2c(C(C)(C)NC(=O)[C@H]3[C@@H]4CNC[C@@H]43)cnc12 [Example 150] | > 2.17 | 0.9 | –
Cc1nc(C(C)(C)NC(=O)[C@H]2[C@@H]3CNC[C@@H]32)n2cccc(F)c12 [Example 151] | > 2.17 | 0.6 | –
CC(C)(NC(=O)[C@H]1[C@@H]2CNC[C@@H]21)c1ncnc2c(Cl)cccc12 [Example 156] | > 2.17 | 7.4 | –
Cc1cc(F)cn2c(C(C)(C)NC(=O)[C@H]3[C@@H]4CNC[C@@H]43)ncc12 [Example 158] | > 2.17 | 0.8 | –
Cc1cccn2c([C@H](C)NC(=O)[C@H]3[C@@H]4CNC[C@@H]43)ncc12 [Example 159] | > 2.17 | 15.4 | –
CC(C)(NC(=O)[C@H]1[C@@H]2CNC[C@@H]21)c1cnn2ccccc12 [Example 167] | > 2.17 | 4.9 | –
CC(C)(NC(=O)[C@H]1[C@@H]2CNC[C@@H]21)c1cnn2c1CCCC2 [Example 168] | > 2.17 | 47.3 | –
